The subject of experiment [1] is 2% formalin model in SD rats. In words: Formalin-induced pain model. It is filed as in vivo. Particulars: 3 mg/kg p.o.; for inhibition in vivo at 3 mg/kg: Rattus norvegicus, po, 1 h, movements (lifts and licks) 0-60 min after formalin, read-out: MPE % (Maximum Possible Effect). How it is done:
A diluted formalin solution is injected subcutaneously into the hind paw of rats using a microsyringe, creating a continuous noxious stimulus that induces spontaneous pain behaviors in the animals. The experiment can record the number of lifts and licks of the rat's foot through an autonomous movement analyzer to assess the degree of pain. This experiment uses a 2% formalin model in SD rats and tests the analgesic activity of compounds by oral administration. After injecting 2% formalin, the number of movements (lifts and licks of the injected foot) from 0-60 min after injecting the formalin solution is recorded and analyzed.
The Maximum Possible Effect (MPE %) is calculated as a percentage:
Note: (1) MPE % for each group is calculated with sham group MPE=100% and vehicle group MPE=0% as standards. (2) Movement counts of the sham group are subtracted to exclude the impact of background noise on the experiment. (2) “Sham” represents the average value of the sham group; “Vehicle-Sham” represents the average value of the vehicle group minus the sham group.
Results are presented as mean values with standard error. Data from each group are analyzed and graphed using GraphPad Prism 8 software. Statistical analysis is conducted using one-way ANOVA to determine statistical differences between groups, with t-tests used for comparisons between two groups. A p-value <0.05 is considered statistically significant.

In experiment [2] the target is T1, human recombinant MAGL (monoacylglycerol lipase) (Homo sapiens, UniProt Q99685).
T1 construct: purchased Cayman Chemical Item No. 705192
T1 sequence (Q99685 1-303): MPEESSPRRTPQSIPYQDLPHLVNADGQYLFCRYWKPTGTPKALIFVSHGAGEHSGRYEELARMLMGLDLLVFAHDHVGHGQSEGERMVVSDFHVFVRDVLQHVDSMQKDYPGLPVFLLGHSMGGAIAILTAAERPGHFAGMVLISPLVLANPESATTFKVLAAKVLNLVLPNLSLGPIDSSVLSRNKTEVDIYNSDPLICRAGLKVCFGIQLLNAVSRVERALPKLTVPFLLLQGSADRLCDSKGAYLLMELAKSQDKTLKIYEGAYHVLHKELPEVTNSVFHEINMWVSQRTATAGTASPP
In words: In vitro MAGL enzyme inhibition assay (Cayman Monoacylglycerol Lipase Inhibitor Screening Assay, 4-nitrophenylacetate hydrolysis). The format is biochemical. Particulars: 4-nitrophenylacetate substrate, 15 min preincubation, absorbance 405-415 nm. How it is done: Monoacylglycerol Lipase Inhibitor Screening Assay provides a convenient method for screening human MAGL inhibitors.
Dilute 3 ml of MAGL Assay Buffer (10×) concentrate with 27 ml of ultrapure water. This final 1× Assay Buffer (10 mM Tris-HCl, pH 7.2, containing 1 mM EDTA) should be used in the assay and for the dilution of MAGL enzyme, substrate, and MAGL inhibitor. The 1× Assay Buffer is stable for at least six months if stored at −20° C.
The vial contains 0.5 ml of 17 mM ethanolic solution of 4-nitrophenylacetate. Mix 150 μL of this solution with 450 μl of 1× Assay Buffer prior to testing. This is enough substrate to assay 50 wells. Dilute additional substrate if using the entire plate.
This vial contains 100 μl of a solution of human recombinant MAGL (monoacylglycerol lipase). The thawed enzyme should be stored on ice. Dilute 30 μl of enzyme with 570 μl of 1×MAGL Assay Buffer. This is enough enzyme to assay 50 wells. Dilute additional enzyme if using the entire plate. The diluted enzyme is stable for four hours on ice.
This vial contains 20 nmol of inhibitor. Resuspend in 125 μl of DMSO, then add 125 μl of 1× Assay Buffer and vortex to make an 80 μM stock.
1). 100% Initial Activity Wells—add 150 μl of 1× Assay Buffer, 10 μl of MAGL enzyme, and 10 μl of solvent (same solvent used to dissolve the inhibitor) to three wells.
2). Background Wells—add 160 μl of 1× Assay Buffer and 10 μl of solvent (same solvent used to dissolve the inhibitor) to three wells.
3). Inhibitor/Positive Control Wells—add 150 μl of 1× Assay Buffer, 10 μl of MAGL enzyme, and 10 μl of inhibitor* or positive control inhibitor to the inhibitor wells.
4). Mix the contents of the wells by pipetting gently up and down and incubate for 15 minutes at room temperature. The incubation time for different inhibitors may vary and will need to be optimized by the user.
5). Initiate the reactions by adding 10 μl of MAGL Substrate to all the wells being used. Carefully shake the 96-well plate for 10 seconds to mix and cover with the plate cover. Incubate for ten minutes at room temperature.
6). […] (Tecan Spark 10M Multimode Plate Reader)
1). Determine the average absorbance of each sample.
2). Subtract the average absorbance of the background wells from the average absorbance of the 100% initial activity and the inhibitor wells.
3). Determine the percent inhibition or percent activity for each inhibitor using one of the following equations: […]

By IC50 is commonly meant the midpoint of a concentration-inhibition curve.

On to `O=C(OC(CO)C(F)(F)F)N1CCC(c2cc3n(n2)-c2ccc(F)cc2CC3)CC1` (stereo not drawn) [Compound 2, 1,1,1-trifluoro-3-hydroxypropan-2-yl 4-(7-fluoro-4,5-dihydropyrazolo[1,5-a]quinolin-2-yl)piperidine-1-carboxylate], for which, in experiment [1], the “Experimental Results (analgesic activity in the formalin model)” value is “effective” and the inhibition in vivo at 3 mg/kg amounted to 45%. In addition, in experiment [2], the IC50 came out at 16 nM.

Regarding `O=C(OC(CO)C(F)(F)F)N1CCC(c2nn3c(c2C(F)(F)F)CCc2cc(F)ccc2-3)CC1` (stereo not drawn) [Compound 7, 1,1,1-trifluoro-3-hydroxypropan-2-yl 4-(7-fluoro-3-(trifluoromethyl)-4,5-dihydropyrazolo[1,5-a]quinolin-2-yl)piperidine-1-carboxylate], in experiment [1], the “Experimental Results (analgesic activity in the formalin model)” value is given as “effective” and the inhibition in vivo at 3 mg/kg came to 56%. The IC50 in experiment [2] came out at 89.8 nM.

Source of the values: patent US20240400554A1, “MONOACYLGLYCEROL LIPASE (MAGL) INHIBITORS FOR THE TREATMENT OF PAIN AND RELATED MEDICAL DISORDERS” (Humanwell Pharmaceutical US, Inc., priority 2023, published 2024).
